Structures can show the parent of a compound that is named as a salt.
Biological target: human GlyT1c transporter (Homo sapiens (Human), UniProt P48067)
Test: Radioligand binding assays using recombinant CHO cell membranes expressing human GlyT1
Conditions: read-out: radioligand binding Kiapp
Procedure: Radioligand binding to human GlyT1c transporter-expressing membranes was determined as described in Mezler et al., Molecular Pharmacology 74:1705-1715, 2008.

Chain of human GlyT1c transporter (P48067 whole entry): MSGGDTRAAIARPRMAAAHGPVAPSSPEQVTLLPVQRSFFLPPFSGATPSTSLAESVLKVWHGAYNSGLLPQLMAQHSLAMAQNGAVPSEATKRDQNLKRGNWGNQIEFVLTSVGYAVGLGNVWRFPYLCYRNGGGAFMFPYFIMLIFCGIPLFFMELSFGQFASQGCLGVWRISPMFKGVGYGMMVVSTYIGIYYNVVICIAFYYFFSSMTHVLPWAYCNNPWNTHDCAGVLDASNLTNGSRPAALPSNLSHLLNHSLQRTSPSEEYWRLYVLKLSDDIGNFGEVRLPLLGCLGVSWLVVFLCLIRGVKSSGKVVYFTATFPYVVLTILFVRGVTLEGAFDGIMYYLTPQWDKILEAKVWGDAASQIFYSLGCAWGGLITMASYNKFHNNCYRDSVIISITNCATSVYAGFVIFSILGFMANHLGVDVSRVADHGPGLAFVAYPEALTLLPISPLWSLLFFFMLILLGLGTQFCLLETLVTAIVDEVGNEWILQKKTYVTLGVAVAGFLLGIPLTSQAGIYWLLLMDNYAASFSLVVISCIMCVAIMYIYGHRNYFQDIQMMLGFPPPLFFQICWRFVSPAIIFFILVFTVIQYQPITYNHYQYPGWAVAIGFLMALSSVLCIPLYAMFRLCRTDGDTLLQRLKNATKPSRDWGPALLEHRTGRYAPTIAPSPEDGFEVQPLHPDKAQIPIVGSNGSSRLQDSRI

`CN(C)CC(Cc1cccc(C(F)(F)F)c1)c1cccc(OCCNS(=O)(=O)c2cn(C)cn2)c1` (stereo not drawn) [Example 29, 1-Methyl-1H-imidazole-4-sulfonic acid (2-{3-[2-dimethylamino-1-(3-trifluoromethyl-benzyl)-ethyl]-phenoxy}-ethyl)-amide] was tested, and the Ki was ≤ 0.1 µM.

In the case of `CN(C)CC(Cc1ccccc1)c1cc(OCCNS(=O)(=O)c2cnn(C)c2)ccc1Cl` (stereo not drawn) [Example 30, 1-Methyl-1H-pyrazole-4-sulfonic acid {2-[3-(1-benzyl-2-dimethylamino-ethyl)-4-chloro-phenoxy]-ethyl}-amide, hydrochloride], the Ki is reported as ≤ 0.1 µM.

With `CN(C)CC(Cc1ccccc1)c1ccc(F)c(OCCNS(=O)(=O)c2cnn(C)c2)c1` (stereo not drawn) [Example 31, 1-Methyl-1H-pyrazole-4-sulfonic acid {2-[5-(1-benzyl-2-dimethylamino-ethyl)-2-fluoro-phenoxy]-ethyl}-amide] the Ki was ≤ 0.1 µM.

`CN(C)CC(Cc1ccccc1)c1ccc(F)c(OCCNS(=O)(=O)c2cn(C)cn2)c1` (stereo not drawn) [Example 32, 1-Methyl-1H-imidazole-4-sulfonic acid {2-[5-(1-benzyl-2-dimethylamino-ethyl)-2-fluoro-phenoxy]-ethyl}-amide] was tested, and the Ki was ≤ 0.1 µM.

`CN(C)CC(Cc1ccccc1)c1cc(OCCNS(=O)(=O)c2cnn(C)c2)ccc1F` (stereo not drawn) [Example 33, 1-Methyl-1H-pyrazole-4-sulfonic acid {2-[3-(1-benzyl-2-dimethylamino-ethyl)-4-fluoro-phenoxy]-ethyl}-amide] was tested, and the Ki was ≤ 0.1 µM.

In the case of `Cn1cc(S(=O)(=O)NCCOc2cccc(C(Cc3ccccc3)CN3CCCC3)c2)cn1` (stereo not drawn) [Example 34, 1-Methyl-1H-pyrazole-4-sulfonic acid {2-[3-(1-benzyl-2-pyrrolidin-1-yl-ethyl)phenoxy]-ethyl}-amide], the Ki is reported as ≤ 1 µM.

`Cn1cnc(S(=O)(=O)NCCOc2cccc(C(Cc3ccccc3)CN3CCCC3)c2)c1` (stereo not drawn) [Example 35, 1-Methyl-1H-imidazole-4-sulfonic acid {2-[3-(1-benzyl-2-pyrrolidin-1-yl-ethyl)phenoxy]-ethyl}-amide] was tested, and the Ki was ≤ 1 µM.

`Cn1cc(S(=O)(=O)NCCOc2cccc(C(Cc3ccccc3)CN3CCC3)c2)cn1` (stereo not drawn) [Example 36] was tested, and the Ki was ≤ 1 µM.

For `Cn1cc(S(=O)(=O)NCc2cccc(C(Cc3ccccc3)CN3CCC3)c2)cn1` (stereo not drawn) [Example 37, 1-Methyl-1H-pyrazole-4-sulfonic acid 3-(2-azetidin-1-yl-1-benzyl-ethyl)benzylamide, hydrochloride], the Ki was ≤ 1 µM.

`CN(Cc1cccc(C(CNC(=O)OC(C)(C)C)C2(c3ccc(Cl)cc3)CCC2)c1)S(=O)(=O)c1cnn(C)c1` (stereo not drawn) [Example 39, tert-Butyl {2-[1-(4-chlorophenyl)cyclobutyl]-2-[3-({methyl[(1-methyl-1H-pyrazol-4-yl)sulfonyl]amino}methyl)phenyl]ethyl}carbamate] was tested, and the Ki was ≤ 10 µM.

`CCCS(=O)(=O)N(C)Cc1cccc(C(CNC(=O)OC(C)(C)C)C2(c3ccc(Cl)cc3)CCC2)c1` (stereo not drawn) [Example 40, tert-Butyl {2-[1-(4-chlorophenyl)cyclobutyl]-2-(3-{[methyl(propylsulfonyl)amino]methyl}phenyl)ethyl}carbamate] was tested, and the Ki was ≤ 10 µM.

`CN(Cc1cccc(C(CNC(=O)OC(C)(C)C)C2(c3ccc(Cl)cc3)CCC2)c1)S(=O)(=O)c1cn(C)cn1` (stereo not drawn) [Example 41, tert-Butyl {2-[1-(4-chlorophenyl)cyclobutyl]-2-[3-({methyl[(1-methyl-1H-imidazol-4-yl)sulfonyl]amino}methyl)phenyl]ethyl}carbamate] was tested, and the Ki was ≤ 10 µM.

`CCCS(=O)(=O)N(C)Cc1cccc(C(CN)C2(c3ccc(Cl)cc3)CCC2)c1` (stereo not drawn) [Example 42, N-(3-{2-Amino-1-[1-(4-chlorophenyl)cyclobutyl]ethyl}benzyl)-N-methylpropane-1-sulfonamide hydrochloride] was tested, and the Ki was ≤ 10 µM.

For `CN(Cc1cccc(C(CN)C2(c3ccc(Cl)cc3)CCC2)c1)S(=O)(=O)CCCF` (stereo not drawn) [Example 43, N-(3-{2-Amino-1-[1-(4-chlorophenyl)cyclobutyl]ethyl}benzyl)-3-fluoro-N-methylpropane-1-sulfonamide hydrochloride], the Ki was ≤ 10 µM.

`CN(Cc1cccc(C(CN)C2(c3ccc(Cl)cc3)CCC2)c1)S(=O)(=O)c1cn(C)cn1` (stereo not drawn) [Example 44, N-(3-{2-Amino-1-[1-(4-chlorophenyl)cyclobutyl]ethyl}benzyl)-N,1-dimethyl-1H-imidazole-4-sulfonamide hydrochloride] was tested, and the Ki was ≤ 10 µM.

`CN(Cc1cccc(C(CN)C2(c3ccc(Cl)cc3)CCC2)c1)S(=O)(=O)c1cnn(C)c1` (stereo not drawn) [Example 45, N-(3-{2-Amino-1-[1-(4-chlorophenyl)cyclobutyl]ethyl}benzyl)-N,1-dimethyl-1H-pyrazole-4-sulfonamide hydrochloride] was tested, and the Ki was ≤ 10 µM.

`CCOC(=O)N1CC(Cc2ccccc2)(c2cccc(OCCNS(=O)(=O)c3cnn(C)c3)c2)C1` [Example 46, 3-Benzyl-3-{3-[2-(1-methyl-1H-pyrazole-4-sulfonylamino)-ethoxy]-phenyl}-azetidine-1-carboxylic acid ethyl ester] was tested, and the Ki was ≤ 10 µM.

For `CCOC(=O)N1CC(Cc2ccccc2)(c2cccc(OCCNS(=O)(=O)c3cn(C)cn3)c2)C1` [Example 47, 3-Benzyl-3-{3-[2-(1-methyl-1H-imidazole-4-sulfonylamino)-ethoxy]-phenyl}-azetidine-1-carboxylic acid ethyl ester], the Ki was ≤ 1 µM.

For `CCOC(=O)N1CC(Cc2ccccc2)(c2cccc(OCCNS(=O)(=O)CC3CC3)c2)C1` [Example 48, 3-Benzyl-3-[3-(2-cyclopropylmethanesulfonylamino-ethoxy)-phenyl]-azetidine-1-carboxylic acid ethyl ester], the Ki was ≤ 1 µM.

With `O=S(=O)(CC1CC1)NCCOc1cccc(C2(Cc3ccccc3)CNC2)c1` [Example 49, N-{2-[3-(3-Benzyl-azetidin-3-yl)-phenoxy]-ethyl}-C-cyclopropyl-methane sulfonamide] the Ki was ≤ 1 µM.

`Cn1cc(S(=O)(=O)NCCOc2cccc(C3(Cc4ccccc4)CNC3)c2)cn1` [Example 50, 1-Methyl-1H-pyrazole-4-sulfonic acid {2-[3-(3-benzyl-azetidin-3-yl)-phenoxy]-ethyl}-amide] was tested, and the Ki was ≤ 0.1 µM.

For `Cn1cnc(S(=O)(=O)NCCOc2cccc(C3(Cc4ccccc4)CNC3)c2)c1` [Example 51, 1-Methyl-1H-imidazole-4-sulfonic acid {2-[3-(3-benzyl-azetidin-3-yl)phenoxy]-ethyl}-amide], the Ki was ≤ 0.1 µM.

In the case of `CN1CC(Cc2ccccc2)(c2ccc(F)c(OCCNS(=O)(=O)c3cn(C)cn3)c2)C1` [Example 52, 1-Methyl-1H-imidazole-4-sulfonic acid {2-[5-(3-benzyl-1-methyl-azetidin-3-yl)-2-fluoro-phenoxy]-ethyl}-amide], the Ki is reported as ≤ 0.1 µM.

`CN1CC(Cc2ccccc2)(c2ccc(F)c(OCCN(C)S(=O)(=O)c3cn(C)cn3)c2)C1` [Example 53, 1-Methyl-1H-imidazole-4-sulfonic acid {2-[5-(3-benzyl-1-methyl-azetidin-3-yl)-2-fluoro-phenoxy]-ethyl}-methyl-amide] was tested, and the Ki was ≤ 1 µM.

For `Cn1cnc(S(=O)(=O)NCCOc2cccc(C3(Cc4ccccc4)CN(CC(F)(F)F)C3)c2)c1` [Example 54, 1-Methyl-1H-imidazole-4-sulfonic acid (2-{3-[3-benzyl-1-(2,2,2-trifluoro-ethyl)azetidin-3-yl]-phenoxy}-ethyl)-amide], the Ki was ≤ 1 µM.

In the case of `Cn1cnc(S(=O)(=O)NCCOc2cccc(C3(Cc4ccccc4)CN(CC(F)F)C3)c2)c1` [Example 55, 1-Methyl-1H-imidazole-4-sulfonic acid (2-{3-[3-benzyl-1-(2,2-difluoro-ethyl)azetidin-3-yl]-phenoxy}-ethyl)-amide], the Ki is reported as ≤ 1 µM.

With `Cn1cnc(S(=O)(=O)NCCOc2cccc(C3(Cc4ccccc4)CNC(=O)C3)c2)c1` (stereo not drawn) [Example 56, 1-Methyl-1H-imidazole-4-sulfonic acid {2-[3-(3-benzyl-5-oxo-pyrrolidin-3-yl)-phenoxy]-ethyl}-amide] the Ki was ≤ 1 µM.

With `O=C1CC(Cc2ccccc2)(c2cccc(OCCNS(=O)(=O)CC3CC3)c2)CN1` (stereo not drawn) [Example 57, N-{2-[3-(3-Benzyl-5-oxo-pyrrolidin-3-yl)-phenoxy]-ethyl}-C-cyclopropyl-methanesulfonamide] the Ki was ≤ 10 µM.

In the case of `Cn1cc(S(=O)(=O)NCCOc2cccc(C3(Cc4ccccc4)CNC(=O)C3)c2)cn1` (stereo not drawn) [Example 58, 1-Methyl-1H-pyrazole-4-sulfonic acid {2-[3-(3-benzyl-5-oxo-pyrrolidin-3-yl)phenoxy]-ethyl}-amide], the Ki is reported as ≤ 1 µM.

In the case of `O=S(=O)(CC1CC1)NCCOc1cccc(C2(Cc3ccccc3)CCNC2)c1` (stereo not drawn) [Example 59, N-{2-[3-(3-Benzyl-pyrrolidin-3-yl)-phenoxy]-ethyl}-C-cyclopropyl-methanesulfonamide], the Ki is reported as ≤ 0.1 µM.

In the case of `Cn1cc(S(=O)(=O)NCCOc2cccc(C3(Cc4ccccc4)CCNC3)c2)cn1` (stereo not drawn) [Example 60, 1-Methyl-1H-pyrazole-4-sulfonic acid {2-[3-(3-benzyl-pyrrolidin-3-yl)phenoxy]-ethyl}-amide], the Ki is reported as ≤ 0.1 µM.

`Cn1cnc(S(=O)(=O)NCCOc2cccc(C3(Cc4ccccc4)CCNC3)c2)c1` (stereo not drawn) [Example 61, 1-Methyl-1H-imidazole-4-sulfonic acid {2-[3-(3-benzyl-pyrrolidin-3-yl)phenoxy]-ethyl}-amide] was tested, and the Ki was ≤ 0.1 µM.

`CN1CCCC(Cc2ccccc2)(c2cccc(OCCNS(=O)(=O)c3cn(C)cn3)c2)C1` (stereo not drawn) [Example 62, 1-Methyl-1H-imidazole-4-sulfonic acid {2-[3-(3-benzyl-1-methyl-piperidin-3-yl)-phenoxy]-ethyl}-amide] was tested, and the Ki was ≤ 0.1 µM.

In the case of `CN1CCCC(Cc2ccccc2)(c2cccc(OCCNS(=O)(=O)c3cnn(C)c3)c2)C1` (stereo not drawn) [Example 63, 1-Methyl-1H-pyrazole-4-sulfonic acid {2-[3-(3-benzyl-1-methyl-piperidin-3-yl)phenoxy]-ethyl}-amide], the Ki is reported as ≤ 0.1 µM.

For `CN1CCCC(Cc2ccccc2)(c2cccc(OCCNS(=O)(=O)CC3CC3)c2)C1` (stereo not drawn) [Example 64, N-{2-[3-(3-Benzyl-1-methyl-piperidin-3-yl)-phenoxy]-ethyl}-C-cyclopropyl-methanesulfonamide], the Ki was ≤ 10 µM.

For `Cn1cc(S(=O)(=O)NCc2cccc(C3(Cc4ccccc4)CNC(=O)C3)c2)cn1` (stereo not drawn) [Example 66, 1-Methyl-1H-pyrazole-4-sulfonic acid 3-(3-benzyl-5-oxo-pyrrolidin-3-yl)benzylamide], the Ki was ≤ 10 µM.
